Data: patent publication US6737383B1, “Herbicidal oxadiazolidines” (priority 1999, dated 2004)

Columns and labels:
duck salad = experiment: Test B flood test duck salad; type: in vivo, Heteranthera limosa
In short: (§1)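 Read-out is a visual response score from 0 (no effect) to 10 (complete control), assigned by comparison with untreated controls. Treatment was applied at the 2-leaf stage, and plants stayed in the greenhouse for twelve to sixteen days before scoring.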

rape = experiment: Test B pre/postemergence rape; type: in vivo, Brassica napus
In short: (§2)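 Response is a visual 0-to-10 score relative to untreated plants, where 0 means no effect and 10 means complete control, taken twelve to sixteen days after application. Treatments went onto soil at planting and onto foliage of 1- to 4-leaf plants, using a surfactant-containing non-phytotoxic solvent.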

crabgrass = experiment: Test B pre/postemergence crabgrass; type: in vivo, Digitaria sanguinalis
In short: as §2

sugar beet = experiment: Test B pre/postemergence sugar beet; type: in vivo, Beta vulgaris
In short: as §2

wheat = experiment: Test B pre/postemergence wheat; type: in vivo, Triticum aestivum
In short: as §2

blackgrass = experiment: Test B pre/postemergence blackgrass; type: in vivo, Alopecurus myosuroides
In short: as §2

cocklebur = experiment: Test B pre/postemergence cocklebur; type: in vivo, Xanthium strumarium
In short: as §2

giant foxtail = experiment: Test B pre/postemergence giant foxtail; type: in vivo, Setaria faberii
In short: as §2

velvetleaf = experiment: Test B pre/postemergence velvetleaf; type: in vivo, Abutilon theophrasti
In short: as §2

soybean = experiment: Test B pre/postemergence soybean; type: in vivo, Glycine max
In short: as §2

corn = experiment: Test B pre/postemergence corn; type: in vivo, Zea mays
In short: as §2

purple nutsedge = experiment: Test B pre/postemergence purple nutsedge; type: in vivo, Cyperus rotundus
In short: as §2

smallflower flatsedge = experiment: Test B flood test smallflower flatsedge; type: in vivo, Cyperus difformis
In short: as §1

rice = experiment: Test B flood test rice; type: in vivo, Oryza sativa
In short: as §1

surinam grass = experiment: Test B pre/postemergence surinam grass; type: in vivo, Brachiaria decumbens
In short: as §2

bamyardgrass = experiment: Test B flood test barnyardgrass; type: in vivo, Echinochloa crus-galli
In short: as §1

bedstraw = experiment: Test B pre/postemergence bedstraw; type: in vivo, Galium aparine
In short: as §2

[1] = Rate 62 g/ha, headed Pre-emergence (flood test species), scale 0 to 10 (0 no effect, 10 complete control)
[2] = Rate 125 g/ha, Pre-emergence, flood test species, scale 0 to 10 where 0 is no effect and 10 is complete control
[3] = Rate 250 g/ha, Pre-emergence, flood-test species, scale 0 to 10, 0 is no effect, 10 is complete control
[4] = Rate 500 g/ha, Pre-emergence, flood test species, scale 0 to 10 (0 no effect, 10 complete control)
[5] = Preemergence, Rate 62 g/ha, scale of 0 to 10 where 0 is no effect and 10 is complete control
[6] = Preemergence, Rate 250 g/ha, scale of 0 to 10 where 0 is no effect and 10 is complete control
[7] = Preemergence, Rate 500 g/ha, scale of 0 to 10 where 0 is no effect and 10 is complete control
[8] = Rate 62 g/ha, Postemergence, scale 0 to 10 (0 no effect, 10 complete control)
[9] = Rate 125 g/ha, Postemergence, scale of 0 to 10 where 0 is no effect and 10 is complete control
[10] = Rate 250 g/ha, Postemergence, scale of 0 to 10 where 0 is no effect and 10 is complete control
[11] = Rate 500 g/ha, Postemergence, scale 0 to 10, 0 no effect, 10 complete control

CC(C)N(C(=O)n1oc(=O)n(Cc2nnsc2Cl)c1=O)c1ccccc1 [Compound 321]
1: Plant response rating, Giant foxtail (giant foxtail; [10])
2: Crabgrass plant response rating (0 to 10 scale) (crabgrass; Preemergence, Rate 125 g/ha) | Plant response rating, Crabgrass (crabgrass; [10]) | Soybean plant response rating (soybean; [8])
7: Blackgrass plant response rating (blackgrass; [7])
5: Plant response rating, Sugarbeets (sugar beet; [10]) | B. signalgrass plant response rating (surinam grass; [7])
8: Giant foxtail plant response rating (0 to 10 scale) (giant foxtail; Preemergence, Rate 125 g/ha) | Plant response rating, Bedstraw (bedstraw; [10])
10: Giant foxtail plant response rating (giant foxtail; [7])
9: Giant foxtail plant response rating (giant foxtail; [6])
4: Crabgrass plant response rating (crabgrass; [7]) | Blackgrass plant response rating (blackgrass; [11]) | Giant foxtail plant response rating (giant foxtail; [5]) | Bedstraw plant response rating (bedstraw; [9])
3: Crabgrass plant response rating (crabgrass; [6]) | Blackgrass plant response rating (blackgrass; [5]) | Plant response rating, Soybean (soybean; [10]) | B. signalgrass plant response rating (surinam grass; [6]) | Bedstraw plant response rating (bedstraw; [7])
6: Blackgrass plant response rating (0 to 10 scale) (blackgrass; Preemergence, Rate 125 g/ha) | Blackgrass plant response rating (blackgrass; [6])
0: Ducksalad plant response rating (duck salad; [1]) | Ducksalad plant response rating (duck salad; [2]) | Ducksalad plant response rating (duck salad; [3]) | Ducksalad plant response rating (duck salad; [4]) | Rape plant response rating (rape; [5]) | Rape plant response rating (0 to 10 scale) (rape; Preemergence, Rate 125 g/ha) | Rape plant response rating (rape; [6]) | Rape plant response rating (rape; [7]) | Rape plant response rating (rape; [8]) | Rape plant response rating (rape; [9]) | Plant response rating, Rape (rape; [10]) | Crabgrass plant response rating (crabgrass; [5]) | Crabgrass plant response rating (crabgrass; [8]) | Crabgrass plant response rating (crabgrass; [9]) | Sugarbeets plant response rating (sugar beet; [5]) | Sugarbeets plant response rating (0 to 10 scale) (sugar beet; Preemergence, Rate 125 g/ha) | Sugarbeets plant response rating (sugar beet; [6]) | Sugarbeets plant response rating (sugar beet; [7]) | Sugarbeets plant response rating (sugar beet; [8]) | Sugarbeets plant response rating (sugar beet; [9]) | Wheat plant response rating (wheat; [5]) | Wheat plant response rating (0 to 10 scale) (wheat; Preemergence, Rate 125 g/ha) | Wheat plant response rating (wheat; [6]) | Wheat plant response rating (wheat; [7]) | Wheat plant response rating (wheat; [8]) | Wheat plant response rating (wheat; [9]) | Plant response rating, Wheat (wheat; [10]) | Blackgrass plant response rating (blackgrass; [8]) | Blackgrass plant response rating (blackgrass; [9]) | Plant response rating, Blackgrass (blackgrass; [10]) | Cocklebur plant response rating (cocklebur; [5]) | Cocklebur plant response rating (0 to 10 scale) (cocklebur; Preemergence, Rate 125 g/ha) | Cocklebur plant response rating (cocklebur; [6]) | Cocklebur plant response rating (cocklebur; [7]) | Cocklebur plant response rating (cocklebur; [8]) | Cocklebur plant response rating (cocklebur; [9]) | Plant response rating, Cocklebur (cocklebur; [10]) | Cocklebur plant response rating (cocklebur; [11]) | Giant foxtail plant response rating (giant foxtail; [8]) | Giant foxtail plant response rating (giant foxtail; [9]) | Velvetleaf plant response rating (velvetleaf; [5]) | Velvetleaf plant response rating (0 to 10 scale) (velvetleaf; Preemergence, Rate 125 g/ha) | Velvetleaf plant response rating (velvetleaf; [6]) | Velvetleaf plant response rating (velvetleaf; [7]) | Velvetleaf plant response rating (velvetleaf; [8]) | Velvetleaf plant response rating (velvetleaf; [9]) | Plant response rating, Velvetleaf (velvetleaf; [10]) | Soybean plant response rating (soybean; [5]) | Soybean plant response rating (0 to 10 scale) (soybean; Preemergence, Rate 125 g/ha) | Soybean plant response rating (soybean; [6]) | Soybean plant response rating (soybean; [7]) | Corn plant response rating (corn; [5]) | Corn plant response rating (0 to 10 scale) (corn; Preemergence, Rate 125 g/ha) | Corn plant response rating (corn; [6]) | Corn plant response rating (corn; [7]) | Corn plant response rating (corn; [8]) | Corn plant response rating (corn; [9]) | Plant response rating, Corn (corn; [10]) | Corn plant response rating (corn; [11]) | Nutsedge plant response rating (purple nutsedge; [5]) | Nutsedge plant response rating (0 to 10 scale) (purple nutsedge; Preemergence, Rate 125 g/ha) | Nutsedge plant response rating (purple nutsedge; [7]) | Nutsedge plant response rating (purple nutsedge; [8]) | Nutsedge plant response rating (purple nutsedge; [9]) | Plant response rating, Nutsedge (purple nutsedge; [10]) | S. Flatsedge plant response rating (smallflower flatsedge; [1]) | S. Flatsedge plant response rating (smallflower flatsedge; [2]) | S. Flatsedge plant response rating (smallflower flatsedge; [3]) | S. Flatsedge plant response rating (smallflower flatsedge; [4]) | Rice plant response rating (rice; [1]) | Rice plant response rating (rice; [2]) | Rice plant response rating (rice; [3]) | Rice plant response rating (rice; [4]) | B. signalgrass plant response rating (surinam grass; [5]) | B. signalgrass plant response rating (0 to 10 scale, 0 is no effect, 10 is complete control) (surinam grass; Preemergence, Rate 125 g/ha) | B. signalgrass plant response rating (surinam grass; [8]) | B. signalgrass plant response rating (surinam grass; [9]) | Plant response rating, B. signalgrass (surinam grass; [10]) | B. signalgrass plant response rating (surinam grass; [11]) | Barnyardgrass plant response rating (bamyardgrass; [1]) | Barnyardgrass plant response rating (bamyardgrass; [2]) | Barnyardgrass plant response rating (bamyardgrass; [3]) | Barnyardgrass plant response rating (bamyardgrass; [4]) | Bedstraw plant response rating (bedstraw; [5]) | Bedstraw plant response rating (bedstraw; [8])
